Measured values from patent US10870638B2, “Pyridazinone compound or its salt, and herbicide containing it” (ISHIHARA SANGYO KAISHA, LTD., priority 2016, dated 2020).

How the values were obtained:
Experiment in all cases: Test Example 1: foliar treatment, growth inhibition rate on 14th day
Format in all cases: in vivo
Details in all cases: active ingredient amount 31 g/ha, 14th day after application
[1] = system: barnyardgrass (Echinochloa crus-qalli L.)
Text: (§1) Upland field soil was put into a 1/300,000 hectare pot, and seeds of various plants were sown. When the respective plants reached predetermined leaf stage ((1) barnyardgrass (Echinochloa crus-[…].): 0.5 to 2.9 leaf stage, (2) crabgrass (Digitaria sanquinalis L.): 0.5 to 3.0 leaf stage, (3) green foxtail (Setaria viridis L.): 0.5 to 3.2 leaf stage, (4) wild oat (Avena fatua L.): 0.4 to 1.2 leaf stage, (5) italian ryegrass (Lolium multiflorum Lam.): 0.4 to 2.0 leaf stage, (6) redroot pigweed (Amaranthus retroflexus L.): cotyledon stage to 2.2 leaf stage, (7) rice (Oryza sativa L.): 0.2 to 2.7 leaf stage, (8) corn (Zea mays L.): 1.7 to 3.6 leaf stage, (9) wheat (Triticum aestivum L.): 1.3 to 2.3 leaf stage, (10) soybean (Glycine max Merr.); primary leaf stage), wettable powders or emulsifiable concentrates of the compounds of the present invention prepared in accordance with a conventional preparation method, were weighed so as to achieve the prescribed active ingredient amounts, and diluted with water in an amount corresponding to 1,000 liters per 1 hectare (containing 0.1 vol % of an agricultural spreader (surfactant WK manufactured by MARUWA BIOCHEMICAL Co., Ltd.)), and the spray solutions thus prepared were applied for foliar treatment by a small sprayer. On the 14th day after the application, the state of growth of the respective plants was visually observed, and the herbicidal effect was evaluated by a growth inhibition rate (%) of 0 (equivalent to the non-treated area) to 100 (complete kill).

corn (Zea mays L.) = system: corn (Zea mays L.)
Text: as §1

[2] = system: crabgrass (Digitaria sanquinalis L.)
Text: as §1

[3] = system: green foxtail (Setaria viridis L.)
Text: as §1

[4] = system: italian ryegrass (Lolium multiflorum Lam.)
Text: as §1

[5] = system: redroot pigweed (Amaranthus retroflexus L.)
Text: as §1

rice (Oryza sativa L.) = system: rice (Oryza sativa L.)
Text: as §1

[6] = system: soybean (Glycine max Merr.)
Text: as §1

[7] = system: wheat (Triticum aestivum L.)
Text: as §1

[8] = system: wild oat (Avena fatua L.)
Text: as §1

SMILES	Growth inhibition rate (%) Barnyardgrass [1] [%]	Growth inhibition rate (%) Corn (corn (Zea mays L.)) [%]	Growth inhibition rate (%) Crabgrass [2] [%]	Growth inhibition rate (%) Green foxtail [3] [%]	Growth inhibition rate (%) Italian ryegrass [4] [%]	Growth inhibition rate (%) Redroot pigweed [5] [%]	Growth inhibition rate (%) Rice (rice (Oryza sativa L.)) [%]	Growth inhibition rate (%) Soybean [6] [%]	Growth inhibition rate (%) Wheat [7] [%]	Growth inhibition rate (%) Wild oat [8] [%]
CC(=O)Cn1ncc(O)c(-c2cc(Oc3ncc(C(F)(F)F)cc3Cl)ccc2C)c1=O [1-169]	90	98	95	99	90	20	10	0	0	90
Cc1ccc(Oc2ncc(C#N)cc2Cl)cc1-c1c(O)c(C)nn(C)c1=O [Compound 2-2]	70	10	70	75	10	20	0	0	0	10
CC(=O)Oc1c(C)nn(C)c(=O)c1-c1cc(Oc2ncc(C#N)cc2Cl)ccc1C [Compound 2-60]	88	50	85	75	40	0	50	0	0	50
Cc1ccc(Oc2ncc3cc(Br)ccc3n2)cc1-c1c(O)c(C)nn(C)c1=O [Compound 2-90]	90	0	0	75	10	0	0	0	20	0
Cc1ccc(Oc2ncc(Cl)cc2C(F)(F)F)cc1-c1c(O)c(C)nn(C)c1=O [Compound 2-92]	80	80	30	10	78	20	0	0	0	50
Cc1ccc(Oc2ccc3cc(Br)ccc3n2)cc1-c1c(O)c(C)nn(C)c1=O [Compound 2-94]	100	0	0	100	20	0	0	0	0	40
Cc1ccc(Oc2nc3ccccc3o2)cc1-c1c(O)c(C)nn(C)c1=O [Compound 2-104]	85	10	60	70	30	10	10	10	20	35
Cc1ccc(Oc2nc3cc(Cl)ccc3o2)cc1-c1c(O)c(C)nn(C)c1=O [Compound 2-105]	90	65	95	90	80	0	35	25	25	75
CC(=O)Oc1c(C)nn(C)c(=O)c1-c1cc(Oc2ccc(C(F)(F)F)cc2Cl)ccc1C [Compound 2-114]	98	75	10	80	80	0	10	0	25	83
CC(=O)Oc1c(C)nn(C)c(=O)c1-c1cc(Oc2ncc(C(F)(F)F)cc2Br)ccc1C [Compound 2-115]	100	98	95	98	98	20	78	0	83	100
CC(=O)Oc1c(C)nn(C)c(=O)c1-c1cc(Oc2ccc(C(F)(F)F)cc2)ccc1C [Compound 2-118]	85	20	40	60	70	0	80	10	50	88
CCc1nn(C)c(=O)c(-c2cc(Oc3nc4ccc(Cl)cc4o3)ccc2C)c1OC(C)=O [Compound 2-122]	100	85	90	95	75	0	0	40	60	60
CC(=O)Oc1c(C)nn(C)c(=O)c1-c1cc(Oc2ncc3cc(Br)ccc3n2)ccc1C [Compound 2-123]	90	0	10	83	0	0	50	0	90	10
CC(=O)Oc1c(C)nn(C)c(=O)c1-c1cc(Oc2ncc(Cl)cn2)ccc1C [Compound 2-124]	85	0	80	80	0	30	0	0	0	0
CC(=O)Oc1c(C)nn(C)c(=O)c1-c1cc(Oc2ncc(Cl)cc2C(F)(F)F)ccc1C [Compound 2-125]	100	90	90	50	93	0	70	0	50	90
CC(=O)Oc1c(C)nn(C)c(=O)c1-c1cc(Oc2ncc(Cl)cc2Cl)ccc1C [Compound 2-128]	85	75	83	75	93	0	45	0	60	88
